# Reference: ChEMBL document CHEMBL3044873, “Aryl N, N-Dimethylcarbamates, Synergists for Organophosphorus Insecticides against Organophos-phorusresistant Rice Stem Borers” (J Pestic Sci, 1990)
# Legend:
# Assay type in all cases: functional
# [1] = tested on: Chilo suppressalis; experiment: Potentiation of fenitrothion-induced insecticidal activity against OP-resistant Chilo suppressalis Hata-f (rice stem borer) assessed as synergistic ratio at 1:10 fenitrothion to compound ratio relative to fenitrothion alone
# [2] = tested on: Chilo suppressalis; experiment: Potentiation of fenitrothion-induced insecticidal activity against OP-susceptible Chilo suppressalis (rice stem borer) S strain assessed as synergistic ratio at 1:10 fenitrothion to compound ratio relative to fenitrothion alone
# [3] = tested on: Chilo suppressalis; experiment: Potentiation of pirimiphos-methyl-induced insecticidal activity against OP-resistant Chilo suppressalis Hata-f (rice stem borer) assessed as synergistic ratio at 1:10 pirimiphos-methyl to compound ratio relative to pirimiphos-methyl alone
# [4] = tested on: Chilo suppressalis; experiment: Potentiation of pirimiphos-methyl-induced insecticidal activity against OP-resistant Chilo suppressalis Hata-f (rice stem borer) assessed as synergistic ratio at 1:5 pirimiphos-methyl to compound ratio relative to pirimiphos-methyl alone
# [5] = tested on: Chilo suppressalis; experiment: Potentiation of pirimiphos-methyl-induced insecticidal activity against OP-resistant Chilo suppressalis Hata-f (rice stem borer) assessed as synergistic ratio at 1:1 pirimiphos-methyl to compound ratio relative to pirimiphos-methyl alone
SMILES,fold change (FC) [1],other results
CN(C)C(=O)Oc1c(Cl)cc(Cl)c2ccccc12,1.3,–
Cc1cc(OC(=O)N(C)C)nc(C)n1,11,–
CCNC(=O)Oc1ccc([N+](=O)[O-])c(C)c1,0.7,–
CCNC(=O)Oc1ccc(SC)c(C)c1,0.6,–
CCNC(=O)Oc1ccc(Cl)c(C)c1,1.2,–
CCNC(=O)Oc1cccc2ccccc12,1,–
Cc1cc(OC(=O)Nc2ccccc2)ccc1[N+](=O)[O-],0.9,–
CSc1ccc(OC(=O)Nc2ccccc2)cc1C,0.7,–
Cc1cc(OC(=O)Nc2ccccc2)ccc1Cl,0.8,–
O=C(Nc1ccccc1)Oc1cccc2ccccc12,1,–
CN(C)C(=S)Oc1ccc([N+](=O)[O-])cc1,1.6,–
CSc1ccc(OC(=S)N(C)C)cc1,2.3,–
CN(C)C(=S)Oc1ccc(C#N)cc1,2.1,–
Cc1cc(OC(=S)N(C)C)ccc1[N+](=O)[O-],1.3,–
CSc1ccc(OC(=S)N(C)C)cc1C,4.9,–
Cc1cc(OC(=S)N(C)C)ccc1Cl,4.1,–
CN(C)C(=O)Sc1ccc([N+](=O)[O-])cc1,1.9,–
CN(C)C(=O)Sc1ccc(Cl)cc1,1.9,–
CCN(CC)c1nc(C)cc(OC(=O)N(C)C)n1,20,fold change (FC) [2]: 1; fold change (FC) [3]: 451; fold change (FC) [4]: 440; fold change (FC) [5]: 86
CN(C)C(=O)Oc1ccc(=O)n(-c2ccccc2)n1,3.1,–
Cc1cc(OC(=O)N(C)C)no1,16,fold change (FC) [3]: 582; fold change (FC) [4]: 438; fold change (FC) [5]: 90
CN(C)C(=O)Oc1cc(-c2ccccc2)on1,23,fold change (FC) [2]: 0.9; fold change (FC) [3]: 419; fold change (FC) [4]: 328; fold change (FC) [5]: 67
CN(C)C(=O)Oc1cccc2ccccc12,13,–
CN(C)C(=O)OCc1ccc2c(c1)OCO2,0.9,–
CCOC(=O)/C=C(\C)OC(=O)N(C)C,1,–

SMILES,fold change (FC) [1],other results
CCN(CC)C(=O)Oc1ccc([N+](=O)[O-])c(C)c1,2.3,–
CCN(CC)C(=O)Oc1ccc(SC)c(C)c1,4.6,–
CCN(CC)C(=O)Oc1ccc(Cl)c(C)c1,1.8,–
CCN(CC)C(=O)Oc1cccc2ccccc12,2.5,–
CCN(CC)C(=O)Oc1cc(C)nc(N(C)C)n1,13,–
CCN(CC)C(=O)Oc1cc(C)nc(N(CC)CC)n1,8.7,–
CCN(CC)C(=O)Oc1cc(-c2ccccc2)on1,4.1,–
CNC(=O)Oc1ccc([N+](=O)[O-])c(C)c1,1.1,–
CNC(=O)Oc1ccc(SC)c(C)c1,0.8,–
CNC(=O)Oc1ccc(Cl)c(C)c1,1.1,–
CN(C)C(=O)Oc1ccc(-c2ccccc2)cc1,2,–
Cc1ccc([N+](=O)[O-])c(OC(=O)N(C)C)c1,3.1,–
Cc1ccc(OC(=O)N(C)C)c([N+](=O)[O-])c1,5.8,–
Cc1cc(OC(=O)N(C)C)ccc1Cl,12,–
CSc1ccc(OC(=O)N(C)C)cc1C,22,fold change (FC) [2]: 0.9; fold change (FC) [3]: 231; fold change (FC) [4]: 188; fold change (FC) [5]: 72
CN(C)C(=O)Oc1ccc([N+](=O)[O-])cc1Cl,2.4,–
CN(C)C(=O)Oc1ccc([N+](=O)[O-])c(Cl)c1,6.3,–
CN(C)C(=O)Oc1ccc([N+](=O)[O-])c(C(F)(F)F)c1,8,–
Cc1c(OC(=O)N(C)C)cc([N+](=O)[O-])cc1[N+](=O)[O-],1.1,–
Cc1cc(OC(=O)N(C)C)cc(C)c1Cl,11,–
CN(C)C(=O)Oc1ccccn1,11,–
CN(C)C(=O)Oc1nc(Cl)c(Cl)cc1Cl,4.1,–
CN(C)C(=O)Oc1ccc2ccccc2n1,15,–
CN(C)C(=O)Oc1cccc2cccnc12,4.6,–
Cc1cc(OC(=O)N(C)C)nc(-c2ccccc2)n1,13,–

SMILES,fold change (FC) [1],other results
CSc1nc(C)cc(OC(=O)N(C)C)n1,14,–
COc1nc(C)cc(OC(=O)N(C)C)n1,13,–
Cc1cc(OC(=O)N(C)C)nc(C(C)C)n1,15,–
CNc1nc(C)cc(OC(=O)N(C)C)n1,21,fold change (FC) [3]: 818; fold change (FC) [4]: 451; fold change (FC) [5]: 129
Cc1cc(OC(=O)N(C)C)nc(Nc2ccccc2)n1,2.8,–
CCC(C)c1ccccc1OC(=O)N(C)C (stereo not given),1.8,–
CN(C)C(=O)Oc1cccc(C(C)(C)C)c1,3.5,–
"CN(C)C(=O)Oc1cc(Cl)c(Cl)cc1Cl [2,4,5-TRICHLOROPHENYL DIMETHYLCARBAMATE]",5.8,–
"CN(C)C(=O)Oc1ccc([N+](=O)[O-])cc1[N+](=O)[O-] [2,4-DINITROPHENYL DIMETHYLCARBAMATE]",0.8,–
CN(C)CCOC(=O)N(C)C [2-(DIMETHYLAMINO)ETHYL DIMETHYLCARBAMATE],1,–
CCSCCOC(=O)N(C)C [2-(ETHYLTHIO)ETHYL DIMETHYLCARBAMATE],1,–
CN(C)C(=O)Oc1ccccc1Cl [2-CHLOROPHENYL DIMETHYLCARBAMATE],5.1,–
CN(C)C(=O)Oc1ccccc1[N+](=O)[O-] [2-NITROPHENYL DIMETHYLCARBAMATE],5.8,–
"Cc1ccc(OC(=O)N(C)C)cc1C [3,4-DIMETHYLPHENYL DIMETHYLCARBAMATE]",9.5,–
"Cc1cc(C)cc(OC(=O)N(C)C)c1 [3,5-DIMETHYLPHENYL DIMETHYLCARBAMATE]",5.8,–
CN(C)C(=O)Oc1cccc(Cl)c1 [3-CHLOROPHENYL DIMETHYLCARBAMATE],11,–
CC(C)c1cccc(OC(=O)N(C)C)c1 [3-ISOPROPYLPHENYL DIMETHYLCARBAMATE],4.3,–
CN(C)C(=O)Oc1cccc([N+](=O)[O-])c1 [3-NITROPHENYL DIMETHYLCARBAMATE],8.2,–
CCN(CC)C(=O)Oc1ccc(SC)cc1 [4-(METHYLTHIO)PHENYL DIETHYLCARBAMATE],2.9,–
CSc1ccc(OC(=O)N(C)C)cc1 [4-(METHYLTHIO)PHENYL DIMETHYLCARBAMATE],16,–
CCNC(=O)Oc1ccc(SC)cc1 [4-(METHYLTHIO)PHENYL ETHYLCARBAMATE],1.4,–
CNC(=O)Oc1ccc(SC)cc1 [4-(METHYLTHIO)PHENYL METHYLCARBAMATE],1.1,–
CC(=O)c1ccc(OC(=O)N(C)C)cc1 [4-ACETYLPHENYL DIMETHYLCARBAMATE],6.9,–
CN(C)C(=O)Oc1ccc(Cl)cc1 [4-CHLOROPHENYL DIMETHYLCARBAMATE],10,–
CCN(CC)C(=O)Oc1ccc(C#N)cc1 [4-CYANOPHENYL DIETHYLCARBAMATE],1.7,–

SMILES,fold change (FC) [1],other results
CN(C)C(=O)Oc1ccc(C#N)cc1 [4-CYANOPHENYL DIMETHYLCARBAMATE],14,–
CCNC(=O)Oc1ccc(C#N)cc1 [4-CYANOPHENYL ETHYLCARBAMATE],1.5,–
CNC(=O)Oc1ccc(C#N)cc1 [4-CYANOPHENYL METHYLCARBAMATE],1.1,–
N#Cc1ccc(OC(=O)Nc2ccccc2)cc1 [4-CYANOPHENYL PHENYLCARBAMATE],0.8,–
COc1ccc(OC(=O)N(C)C)cc1 [4-METHOXYPHENYL DIMETHYLCARBAMATE],3,–
CN(C)C(=O)OCc1ccc([N+](=O)[O-])cc1 [4-NITROBENZYL DIMETHYLCARBAMATE],1,–
CCN(CC)C(=O)Oc1ccc([N+](=O)[O-])cc1 [4-NITROPHENYL DIETHYLCARBAMATE],3.3,–
CN(C)C(=O)Oc1ccc([N+](=O)[O-])cc1 [4-NITROPHENYL DIMETHYLCARBAMATE],10,–
CCNC(=O)Oc1ccc([N+](=O)[O-])cc1 [4-NITROPHENYL ETHYLCARBAMATE],1.2,–
CNC(=O)Oc1ccc([N+](=O)[O-])cc1 [4-NITROPHENYL METHYLCARBAMATE],0.9,–
O=C(Nc1ccccc1)Oc1ccc([N+](=O)[O-])cc1 [4-NITROPHENYL PHENYLCARBAMATE],0.9,–
CN(C)C(=O)OCc1ccccc1 [BENZYL DIMETHYLCARBAMATE],0.9,–
CCOC(=O)Nc1ccccc1 [ETHYL PHENYLCARBAMATE],0.8,–
CC(C)OC(=O)c1ccc(OC(=O)N(C)C)cc1 [ISOPROPYL 4-(DIMETHYLCARBAMOYLOXY)BENZOATE],0.9,–
Cc1cccc(OC(=O)N(C)C)c1 [M-TOLYL DIMETHYLCARBAMATE],9.2,–
COC(=O)c1ccc(OC(=O)N(C)C)cc1 [METHYL 4-(DIMETHYLCARBAMOYLOXY)BENZOATE],6.3,–
CN(C)C(=O)Oc1ccc2ccccc2c1 [NAPHTHALEN-2-YL DIMETHYLCARBAMATE],16,–
Cc1ccccc1OC(=O)N(C)C [O-TOLYL DIMETHYLCARBAMATE],4.3,–
Cc1ccc(OC(=O)N(C)C)cc1 [P-TOLYL DIMETHYLCARBAMATE],8.1,–
CN(C)C(=O)Oc1ccccc1 [PHENYL DIMETHYLCARBAMATE],5.8,–
Cc1nc(N(C)C)nc(OC(=O)N(C)C)c1C [PIRIMICARB],6.3,–
CN(C)C(=O)SCc1ccccc1 [S-BENZYL DIMETHYLCARBAMOTHIOATE],1,–
